Biological target: T1, human IRAK4 (Homo sapiens, UniProt Q9NWZ3)
T1 construct: GST (N); made in house; host or cells: baculovirus-infected Hi5 (BTI-TN-5B1-4) insect cells
T1 sequence (Q9NWZ3 1-460): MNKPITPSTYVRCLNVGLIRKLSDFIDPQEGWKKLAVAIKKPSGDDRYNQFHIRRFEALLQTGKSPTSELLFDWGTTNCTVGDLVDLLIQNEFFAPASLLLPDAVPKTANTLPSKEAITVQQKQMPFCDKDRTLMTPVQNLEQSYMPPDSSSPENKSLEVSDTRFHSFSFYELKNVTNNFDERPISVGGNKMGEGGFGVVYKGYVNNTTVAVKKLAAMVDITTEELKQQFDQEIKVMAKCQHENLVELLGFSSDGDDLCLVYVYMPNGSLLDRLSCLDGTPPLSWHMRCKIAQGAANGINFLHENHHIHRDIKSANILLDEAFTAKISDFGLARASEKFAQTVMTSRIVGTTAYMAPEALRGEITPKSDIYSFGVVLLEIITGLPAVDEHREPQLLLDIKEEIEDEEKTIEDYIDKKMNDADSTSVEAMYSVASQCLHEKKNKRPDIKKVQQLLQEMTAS
Test: Human IRAK4 kinase activity inhibition assay (IRAK4 TR-FRET assay)
Type: biochemical
Details: 1 mM ATP, GST-human IRAK4, average or median values
Procedure, shortened: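 GST-IRAK4 from insect cells (about 0.2 nM, linear range) was preincubated 15 min with compound (11 concentrations, 20 µM–0.073 nM) in HEPES pH 7.5 with MgCl2 and DTT before kinase reaction on a biotinylated peptide. Phosphopeptide was detected by TR-FRET (Eu anti-mouse-IgG/anti-phosphoserine/streptavidin-XL665, 1 h at 22°C) as the 665/620 nm ratio, normalized to no-compound and no-enzyme controls.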

O=C1COCCN1C1CN(c2nc(N[C@H]3C[C@@H](O)C3)nc3c2cnn3-c2cccc(C(F)(F)F)c2)C1 [Example I-121, 4-(1-{6-[(cis-3-hydroxycyclobutyl)amino]-1-[3-(trifluoromethyl)phenyl]-1H-pyrazolo[3,4-d]pyrimidin-4-yl}azetidin-3-yl)morpholin-3-one]
IC50: 3.65 nM

C[C@]1(O)C[C@H](Nc2nc(N3CC(N4CCOCC4=O)C3)c3cnn(-c4cccc(C(F)(F)F)c4)c3n2)C1 [Example I-122, 4-(1-{6-[(trans-3-hydroxy-3-methylcyclobutyl)amino]-1-[3-(trifluoromethyl)phenyl]-1H-pyrazolo[3,4-d]pyrimidin-4-yl}azetidin-3-yl)morpholin-3-one]
IC50: 2.75 nM

CC1(N2CCOCC2)CN(c2nc(N[C@H]3C[C@](C)(O)C3)nc3c2cnn3-c2cccc(C(F)(F)F)c2)C1 [Example I-123, trans-1-methyl-3-({4-[3-methyl-3-(morpholin-4-yl)azetidin-1-yl]-1-[3-(trifluoromethyl)-phenyl]-1H-pyrazolo[3,4-d]pyrimidin-6-yl}amino)cyclobutanol]
IC50: 7.98 nM

C[C@]1(O)CCN(c2nc(N[C@H]3C[C@@H](O)C3)nc3c2cnn3-c2cccc(C(F)(F)F)c2)C1 [Example I-124, (3S)-1-(6-{[(1s,3R)-3-hydroxycyclobutyl]amino}-1-[3-(trifluoromethyl)phenyl]-1H-pyrazolo[3,4-d]pyrimidin-4-yl)-3-methylpyrrolidin-3-ol]
IC50: 22.5 nM

CCC1(O)CN(c2nc(N[C@H]3CCN(C)C3)nc3c2cnn3-c2cccc(S(C)(=O)=O)c2)C1 [Example V-1, 3-ethyl-1-(6-{[(3S)-1-methylpyrrolidin-3-yl]amino}-1-[3-(methylsulfonyl)phenyl]-1H-pyrazolo[3,4-d]pyrimidin-4-yl)azetidin-3-ol]
IC50: 170 nM

CCC1(O)CN(c2nc(N[C@@H]3CCOC3)nc3c2cnn3-c2cccc(S(C)(=O)=O)c2)C1 [Example V-2, 3-ethyl-1-{1-[3-(methylsulfonyl)phenyl]-6-[(3R)-tetrahydrofuran-3-ylamino]-1H-pyrazolo[3,4-d]pyrimidin-4-yl}azetidin-3-ol]
IC50: 179 nM

O=S1(=O)CC[C@H](Nc2nc(N3CC(N4CCOCC4)C3)c3cnn(-c4cccc(C(F)F)c4)c3n2)C1 [II-3, 1-[3-(difluoromethyl)phenyl]-N-[(3S)-1,1-dioxidotetrahydrothiophen-3-yl]-4-[3-(morpholin-4-yl)azetidin-1-yl]-1H-pyrazolo[3,4-d]pyrimidin-6-amine]
IC50: 24.8 nM

O=C(O)CC1CN(c2nc(NC3CCS(=O)(=O)CC3)nc3c2cnn3-c2cccc(C(F)F)c2)C1 [II-9, (1-{1-[3-(difluoromethyl)phenyl]-6-[(1,1-dioxidotetrahydro-2H-thiopyran-4-yl)amino]-1H-pyrazolo[3,4-d]pyrimidin-4-yl}azetidin-3-yl)acetic acid]
IC50: 84.9 nM

CS(=O)(=O)N1CC(Nc2nc(N3CC(N4CCOCC4)C3)c3cnn(-c4cccc(C(F)F)c4)c3n2)C1 [II-13, 1-[3-(difluoromethyl)phenyl]-N-[1-(methylsulfonyl)azetidin-3-yl]-4-[3-(morpholin-4-yl)azetidin-1-yl]-1H-pyrazolo[3,4-d]pyrimidin-6-amine]
IC50: 13.3 nM

O=S1(=O)CCC(Nc2nc(N3CCC(O)(C(F)(F)F)C3)c3cnn(-c4cccc(C(F)F)c4)c3n2)CC1 (stereo not shown) [II-15, 1-{1-[3-(difluoromethyl)phenyl]-6-[(1,1-dioxidotetrahydro-2H-thiopyran-4-yl)amino]-1H-pyrazolo[3,4-d]pyrimidin-4-yl}-3-(trifluoromethyl)pyrrolidin-3-ol]
IC50: 45.2 nM

CS(=O)(=O)N1CC(Nc2nc(N3C[C@H](O)[C@@H](F)C3)c3cnn(-c4cccc(C(F)F)c4)c3n2)C1 [II-22, (3S,4S)-1-(1-[3-(difluoromethyl)phenyl]-6-{[1-(methylsulfonyl)azetidin-3-yl]amino}-1H-pyrazolo[3,4-d]pyrimidin-4-yl)-4-fluoropyrrolidin-3-ol]
IC50: 45.3 nM

CS(=O)(=O)N1CC(Nc2nc(N3C[C@@H](O)[C@H](F)C3)c3cnn(-c4cccc(C(F)F)c4)c3n2)C1 [II-23, (3R,4R)-1-(1-[3-(difluoromethyl)phenyl]-6-{[1-(methylsulfonyl)azetidin-3-yl]amino}-1H-pyrazolo[3,4-d]pyrimidin-4-yl)-4-fluoropyrrolidin-3-ol]
IC50: 16.2 nM

O[C@H]1C[C@H](Nc2nc(N3CC(N4CCOCC4)C3)c3cnn(-c4cccc(C(F)F)c4)c3n2)C1 [II-25, trans-3-({1-[3-(difluoromethyl)phenyl]-4-[3-(morpholin-4-yl)azetidin-1-yl]-1H-pyrazolo-[3,4-d]pyrimidin-6-yl}amino)cyclobutanol]
IC50: 6.15 nM

CC(C)(C(=O)O)C1CN(c2nc(NC3CCS(=O)(=O)CC3)nc3c2cnn3-c2cccc(C(F)F)c2)C1 [II-26, 2-(1-{1-[3-(difluoromethyl)phenyl]-6-[(1,1-dioxidotetrahydro-2H-thiopyran-4-yl)amino]-1H-pyrazolo[3,4-d]pyrimidin-4-yl}azetidin-3-yl)-2-methylpropanoic acid]
IC50: 73.6 nM

CCS(=O)(=O)N1CC(Nc2nc(N3CC(CC(C)(C)O)C3)c3cnn(-c4cccc(C(F)F)c4)c3n2)C1 [II-28, 1-[1-(1-[3-(difluoromethyl)phenyl]-6-{[1-(ethylsulfonyl)azetidin-3-yl]amino}-1H-pyrazolo[3,4-d]pyrimidin-4-yl)azetidin-3-yl]-2-methylpropan-2-ol]
IC50: 40 nM

C[C@@]1(O)CCN(c2nc(NC3CN(S(C)(=O)=O)C3)nc3c2cnn3-c2cccc(C(F)F)c2)C1 [II-29, (3R)-1-(1-[3-(difluoromethyl)phenyl]-6-{[1-(methylsulfonyl)azetidin-3-yl]amino}-1H-pyrazolo[3,4-d]pyrimidin-4-yl)-3-methylpyrrolidin-3-ol]
IC50: 67.1 nM

CC(C)(O)C1CCN(c2nc(NC3CN(S(=O)(=O)C4CC4)C3)nc3c2cnn3-c2cccc(C(F)F)c2)CC1 [II-30, 2-[1-(6-{[1-(cyclopropylsulfonyl)azetidin-3-yl]amino}-1-[3-(difluoromethyl)phenyl]-1H-pyrazolo[3,4-d]pyrimidin-4-yl)piperidin-4-yl]propan-2-ol]
IC50: 16.2 nM

CCS(=O)(=O)N1CC(Nc2nc(N3CC(N4CCOCC4)C3)c3cnn(-c4cccc(C(F)F)c4)c3n2)C1 [II-32, 1-[3-(difluoromethyl)phenyl]-N-[1-(ethylsulfonyl)azetidin-3-yl]-4-[3-(morpholin-4-yl)azetidin-1-yl]-1H-pyrazolo[3,4-d]pyrimidin-6-amine]
IC50: 56.7 nM

O[C@@H]1CCN(c2nc(N[C@H]3C[C@H](O)C3)nc3c2cnn3-c2cccc(C(F)F)c2)C1 [II-33, (3R)-1-(1-[3-(difluoromethyl)phenyl]-6-{[(1r,3R)-3-hydroxycyclobutyl]amino}-1H-pyrazolo[3,4-d]pyrimidin-4-yl)pyrrolidin-3-ol]
IC50: 16.5 nM

CC(C)(O)CC1CN(c2nc(N[C@H]3C[C@@]4(CCN4)C3)nc3c2cnn3-c2cccc(C(F)F)c2)C1 [II-36, 1-(1-{6-[(4r,6s)-1-azaspiro[3.3]heptan-6-ylamino]-1-[3-(difluoromethyl)phenyl]-1H-pyrazolo[3,4-d]pyrimidin-4-yl}azetidin-3-yl)-2-methylpropan-2-ol]
IC50: 2.76 nM

CC(C)(O)C1CCN(c2nc(N[C@@H]3CNC(=O)C3)nc3c2cnn3-c2cccc(OC(F)(F)F)c2)CC1 [III-1, (4S)-4-({4-[4-(2-hydroxypropan-2-yl)piperidin-1-yl]-1-[3-(trifluoromethoxy)phenyl]-1H-pyrazolo[3,4-d]pyrimidin-6-yl}amino)pyrrolidin-2-one]
IC50: 19.1 nM

CS(=O)(=O)[C@H]1C[C@H](Nc2nc(N3C[C@H](O)[C@@H](F)C3)c3cnn(-c4cccc(OC(F)F)c4)c3n2)C1 [IV-5, (3S,4S)-1-(1-[3-(difluoromethoxy)phenyl]-6-{[trans-3-(methylsulfonyl)cyclobutyl]amino}-1H-pyrazolo[3,4-d]pyrimidin-4-yl)-4-fluoropyrrolidin-3-ol]
IC50: 11.2 nM

CS(=O)(=O)N1CC(Nc2nc(N3C[C@H](O)[C@@H](F)C3)c3cnn(-c4cccc(OC(F)F)c4)c3n2)C1 [IV-6, (3S,4S)-1-(1-[3-(difluoromethoxy)phenyl]-6-{[1-(methylsulfonyl)azetidin-3-yl]amino}-1H-pyrazolo[3,4-d]pyrimidin-4-yl)-4-fluoropyrrolidin-3-ol]
IC50: 193 nM

O=S1(=O)CCC(Nc2nc(N3C[C@H](O)[C@@H](F)C3)c3cnn(-c4cccc(OC(F)F)c4)c3n2)CC1 [IV-7, (3S,4S)-1-{1-[3-(difluoromethoxy)phenyl]-6-[(1,1-dioxidotetrahydro-2H-thiopyran-4-yl)amino]-1H-pyrazolo[3,4-d]pyrimidin-4-yl}-4-fluoropyrrolidin-3-ol]
IC50: 46.4 nM

CN1CC[C@H](Nc2nc(N3CCC(C(C)(C)O)CC3)c3cnn(-c4cccc(C(C)(C)O)c4)c3n2)C1 [VI-1, 2-[1-(1-[3-(2-hydroxypropan-2-yl)phenyl]-6-{[(3S)-1-methylpyrrolidin-3-yl]amino}-1H-pyrazolo[3,4-d]pyrimidin-4-yl)piperidin-4-yl]propan-2-ol]
IC50: 77.3 nM

— patent EP3800188A1, “SUBSTITUTED PYRAZOLOPYRIMIDINES AS IRAK4 INHIBITORS” (Bayer AG, priority 2019, dated 2021)
